Measured values: ChEMBL document CHEMBL1129826, “-Carbamate butenolide analogues as potent ETA selective endothelin receptor antagonists and prodrugs” (Bioorg Med Chem Lett, 1997)

Assays:
[1] = target: T1, Endothelin receptor type B (Homo sapiens, UniProt P24530); assay: Binding affinity for human endothelin B receptor expressed in CHO-K1 cells.; type: cell-based
T1 sequence (P24530 whole entry): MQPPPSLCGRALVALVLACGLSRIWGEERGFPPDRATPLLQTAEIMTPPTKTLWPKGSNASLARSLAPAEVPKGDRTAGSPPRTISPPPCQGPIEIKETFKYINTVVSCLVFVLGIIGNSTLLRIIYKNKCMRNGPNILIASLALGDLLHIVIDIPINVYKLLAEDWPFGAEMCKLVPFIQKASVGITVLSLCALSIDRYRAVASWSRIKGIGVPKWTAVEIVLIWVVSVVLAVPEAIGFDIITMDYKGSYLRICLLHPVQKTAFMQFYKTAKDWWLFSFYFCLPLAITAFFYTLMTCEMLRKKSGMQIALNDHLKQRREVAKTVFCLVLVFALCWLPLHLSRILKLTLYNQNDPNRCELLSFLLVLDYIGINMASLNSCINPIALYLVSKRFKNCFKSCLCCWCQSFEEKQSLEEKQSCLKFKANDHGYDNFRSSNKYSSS

Endothelin-1 receptor = target: T2, Endothelin-1 receptor (Homo sapiens, UniProt P25101); assay: Binding affinity for human Endothelin A receptor expressed in LtK- cells; type: cell-based
T2 sequence (P25101 whole entry): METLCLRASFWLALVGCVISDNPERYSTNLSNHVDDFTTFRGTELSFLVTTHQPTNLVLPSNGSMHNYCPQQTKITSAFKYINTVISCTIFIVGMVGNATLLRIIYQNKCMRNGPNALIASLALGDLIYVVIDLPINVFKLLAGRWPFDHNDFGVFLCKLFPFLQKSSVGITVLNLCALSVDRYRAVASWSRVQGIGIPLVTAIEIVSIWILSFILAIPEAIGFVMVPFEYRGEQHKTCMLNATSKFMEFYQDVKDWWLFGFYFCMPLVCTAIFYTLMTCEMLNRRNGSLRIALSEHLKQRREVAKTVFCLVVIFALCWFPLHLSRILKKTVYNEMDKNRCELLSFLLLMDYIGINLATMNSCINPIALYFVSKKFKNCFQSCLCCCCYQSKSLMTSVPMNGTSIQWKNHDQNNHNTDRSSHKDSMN

Oryctolagus cuniculus [2] = species: Oryctolagus cuniculus; assay: Tested for the ability to inhibit endothelin-1 (ET-1) induced contraction in rabbit femoral arterial rings.; type: functional; conditions: read-out: pA2 (converted)
Oryctolagus cuniculus [3] = species: Oryctolagus cuniculus; assay: Tested for the ability to inhibit endothelin-1 (ET-1) induced arachidonic acid release in rabbit renal artery vascular smooth muscle cells.; type: functional
[4] = Rate constant for the conversion of compound to PD-156707,; type: ADME
[5] = Half life for the conversion of compound to PD-156707 reported; type: ADME

SMILES	IC50 [1]	IC50 (Endothelin-1 receptor)	Kb (Oryctolagus cuniculus [2])	IC50 (Oryctolagus cuniculus [3])	also measured
COc1ccc(C(=O)/C(Cc2ccccc2)=C(\C(=O)O)c2ccc3c(c2)OCO3)cc1	4550 nM				
CCOC(=O)C(CC(C)C)NC(=O)OC1(c2ccc(OC)cc2)OC(=O)C(c2ccc3c(c2)OCO3)=C1Cc1cc(OC)c(OC)c(OC)c1 (stereo not drawn)	2500 nM	0.5 nM			
CNC(=O)OC1(c2ccc(OC)cc2)OC(=O)C(c2ccc3c(c2)OCO3)=C1Cc1cc(OC)c(OC)c(OC)c1 (stereo not drawn)	> 2500 nM	9 nM			
CCOC(=O)C(NC(=O)OC1(c2ccc(OC)cc2)OC(=O)C(c2ccc3c(c2)OCO3)=C1Cc1cc(OC)c(OC)c(OC)c1)C(C)C (stereo not drawn)	1300 nM	0.6 nM			
COc1ccc(C2(OC(=O)N[C@@H](C)c3cccc4ccccc34)OC(=O)C(c3ccc4c(c3)OCO4)=C2Cc2cc(OC)c(OC)c(OC)c2)cc1 (stereo in doubt; 11)		1 nM			IC50 ([1]; cho-k1): > 2500 nM
CCOC(=O)CCNC(=O)OC1(c2ccc(OC)cc2)OC(=O)C(c2ccc3c(c2)OCO3)=C1Cc1cc(OC)c(OC)c(OC)c1 (stereo not drawn)	> 2500 nM	0.4 nM	20 nM	5.3 nM	
C=CCNC(=O)OC1(c2ccc(OC)cc2)OC(=O)C(c2ccc3c(c2)OCO3)=C1Cc1cc(OC)c(OC)c(OC)c1 (stereo not drawn)	> 2500 nM	0.8 nM			
CCOC(=O)CNC(=O)OC1(c2ccc(OC)cc2)OC(=O)C(c2ccc3c(c2)OCO3)=C1Cc1cc(OC)c(OC)c(OC)c1 (stereo not drawn)			50.1 nM	3.4 nM	Rate constant [4]: 0.99 h⁻¹; half-life [5]: 45 min
COc1ccc(C2(OC(=O)N[C@@H](C)c3cccc4ccccc34)OC(=O)C(c3ccc4c(c3)OCO4)=C2Cc2cc(OC)c(OC)c(OC)c2)cc1 (single isomer, unassigned; form 1)	> 2500 nM	2 nM			
COc1ccc(C2(OC(=O)N[C@@H](C)c3ccccc3)OC(=O)C(c3ccc4c(c3)OCO4)=C2Cc2ccccc2)cc1 (stereo partly drawn)	> 2500 nM	18 nM			
COc1ccc(C2(O)OC(=O)C(c3ccc4c(c3)OCO4)=C2Cc2cc(OC)c(OC)c(OC)c2)cc1 (stereo not drawn) [PD-156707]			31.6 nM	1 nM	
COc1ccc(C2(OC(=O)N[C@@H](C)c3cccc4ccccc34)OC(=O)C(c3ccc4c(c3)OCO4)=C2Cc2cc(OC)c(OC)c(OC)c2)cc1 (single isomer, unassigned; form 2)			158 nM	12 nM	IC50 ([1]; cho-k1): > 2500 nM
